The nature of the data set: Demonstration of CNS penetration, brain and plasma levels in mice. Format: in vivo. The following applies: mouse, oral, mice (C57), 100 mg/kg orally, samples at 2, 4 and 8 h, read-out: % ratio of brain to plasma concentration. On the procedure:
In-vivo Study: A total number of 24 mice (C57) were dosed orally at 100 mg/kg of drug compound in 10% propylene glycol, 7.5% ethanol and 82.5% solutol. At designated times (2, 4 and 8 his), a group of eight mice were sacrificed, and plasma and brain tissue samples were collected by following the NIH guideline.
Bioanalytical: Plasma samples were prepared as follows. Two hundred microliters of acetonitrile containing internal standard was added to 100 μL of plasma to precipitate proteins. After vortexing, samples were centrifuged at 10000 g for 10 min and supernatants were transferred to HPLC sample vials for analysis by LC-MS-MS. Calibration standards were prepared by adding appropriate volumes of drug stock solution directly into blank plasma (from untreated animals) and processed identically to collected plasma samples.
Brain tissues were first homogenized in two-volume of PBS buffer (e.g. 100 mg tissue in 200 μL PBS). Two hundred microliters of acetonitrile containing internal standard was added to 100 μL of tissue homogenants to precipitate proteins. Three replicates were processed for each tissue homogenant. After vortexing, samples were centrifuged at 10000 g for 10 min and supernatants were transferred to HPLC sample vials for analysis by LC-MS-MS. […]

From patent publication US7825160B2, “(Biphenyl) carboxylic acids and derivatives thereof” (Cellzome Limited, priority 2004, dated 2010) come the findings set out here.

As for `CCC[C@@H](C(=O)O)c1cc(OCc2ccccc2)cc(-c2ccc(C(F)(F)F)cc2)c1` (single isomer, unassigned) [LXIV], the Kp was 0.286. Take `CCC[C@H](C(=O)O)c1cc(OCc2ccccc2)cc(-c2ccc(C(F)(F)F)cc2)c1` (single isomer, unassigned) [LXV]: the Kp came out at 0.32.
